Reference: publication PMC5349906, “NT1721, a novel epidithiodiketopiperazine, exhibits potent in vitro and in vivo efficacy against acute myeloid leukemia” (Oncotarget, 2016)
pIC50: −log10 of the molar value.

Target: T1, SUV39H1 (Homo sapiens, UniProt O43463)
T1 construct: recombinant SUV39H1
T1 sequence (O43463 1-412): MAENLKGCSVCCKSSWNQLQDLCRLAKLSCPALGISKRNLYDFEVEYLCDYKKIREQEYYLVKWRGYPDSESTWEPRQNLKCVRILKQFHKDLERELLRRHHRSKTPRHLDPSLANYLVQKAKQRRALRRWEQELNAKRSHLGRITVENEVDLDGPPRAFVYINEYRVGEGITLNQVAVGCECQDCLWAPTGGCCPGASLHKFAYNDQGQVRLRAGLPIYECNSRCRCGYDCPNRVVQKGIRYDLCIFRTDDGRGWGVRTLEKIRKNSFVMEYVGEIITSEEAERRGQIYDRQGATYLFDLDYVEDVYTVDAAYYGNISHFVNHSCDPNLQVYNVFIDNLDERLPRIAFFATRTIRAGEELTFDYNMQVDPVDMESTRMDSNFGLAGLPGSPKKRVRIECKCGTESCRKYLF
Experiment: cell-free histone methyltransferase activity assay with recombinant enzyme (data not shown)
Assay type: biochemical

For `CN1C(=O)[C@@]23C[C@](C)(C#N)[C@H](c4ccc5c(c4)OCO5)N2C(=O)[C@]1(C)SS3` (racemic) [NT1721], the pIC50 was 5.89.
